Reference: patent publication US9748593B2, “Polymer electrolyte composition, and polymer electrolyte membrane, membrane electrode complex and solid polymer-type fuel cell each produced using same” (TORAY INDUSTRIES, INC., priority 2012, dated 2017)
In brackets after ≈: the same amount, converted by molar mass.

Assay: physchem
Settings: 60 °C, thermodynamic from solid
Description: • (6) Solubility of Nitrogen-Containing Additive
After 100 mg of the nitrogen-containing additive and 1 L of a solvent were mixed, the resulting mixture was stirred at a rotational speed of 200 rpm at 60° C. for 1 hour using a mixing machine to dissolve the nitrogen-containing additive.

SMILES | solubility at 1 h (aqueous buffer) | solubility at 1 h (water)
c1cnc2c(c1)ccc1cccnc12 [1,10-phenanthroline, reference compound] | ≥ 100 µg/mL | ≥ 100 µg/mL
Nc1cc2cccnc2c2ncccc12 [5-amino-1,10-phenanthroline, reference compound] | ≥ 100 µg/mL | ≥ 100 µg/mL
c1cc(-c2ccc3ccc4cccnc4c3n2)cc(-c2ccc3ccc4cccnc4c3n2)c1 [ADT-1] | 5 µg/mL (≈ 11.5 µM) | < 0.1 µg/mL
c1ccc(-c2ccc3ccc4ccc(-c5cccc(-c6ccc7ccc8ccc(-c9ccccc9)nc8c7n6)c5)nc4c3n2)cc1 [ADT-2] | 3.4 µg/mL (≈ 5.8 µM) | < 0.1 µg/mL
c1cnc2c(c1)ccc1ccc(-c3ccc(-c4ccc5ccc6cccnc6c5n4)cc3)nc12 [ADT-3] | 4.2 µg/mL (≈ 9.67 µM) | < 0.1 µg/mL
c1ccc2c(-c3ccc4ccc5ccc(-c6ccc(-c7ccc8ccc9ccc(-c%10cccc%11ccccc%10%11)nc9c8n7)cc6)nc5c4n3)cccc2c1 [ADT-4] | 1.9 µg/mL (≈ 2.77 µM) | < 0.1 µg/mL
c1cnc2c(c1)ccc1ccc(-c3ccc4ccc(-c5ccc6ccc7cccnc7c6n5)cc4c3)nc12 [ADT-5] | 4 µg/mL (≈ 8.25 µM) | < 0.1 µg/mL
c1ccc(-c2ccc3ccc4ccc(-c5ccc6ccc(-c7ccc8ccc9ccc(-c%10ccccc%10)nc9c8n7)cc6c5)nc4c3n2)cc1 [ADT-6] | 2.6 µg/mL (≈ 4.08 µM) | < 0.1 µg/mL
c1cnc2c(c1)ccc1ccc(-c3cccc4c(-c5ccc6ccc7cccnc7c6n5)cccc34)nc12 [ADT-7] | 4.5 µg/mL (≈ 9.29 µM) | < 0.1 µg/mL
c1ccc(-c2ccc(-c3ccc4ccc5cccnc5c4n3)cc2)c(-c2ccc(-c3ccc4ccc5cccnc5c4n3)cc2)c1 [ADT-8] | 3.3 µg/mL (≈ 5.62 µM) | < 0.1 µg/mL
c1cc(-c2ccc(-c3ccc4ccc5cccnc5c4n3)cc2)cc(-c2ccc(-c3ccc4ccc5cccnc5c4n3)cc2)c1 [ADT-9] | 3 µg/mL (≈ 5.11 µM) | < 0.1 µg/mL
c1cc(-c2cccc(-c3ccc4ccc5cccnc5c4n3)c2)cc(-c2cccc(-c3ccc4ccc5cccnc5c4n3)c2)c1 [ADT-10] | 3.6 µg/mL (≈ 6.14 µM) | < 0.1 µg/mL
CC(C)(C)c1ccc(-c2ccc3ccc4ccc(-c5cccc(-c6ccc7ccc8ccc(-c9ccc(C(C)(C)C)cc9)nc8c7n6)c5)nc4c3n2)cc1 [ADT-11] | 2.9 µg/mL (≈ 4.15 µM) | < 0.1 µg/mL
Cc1cc(C)cc(-c2ccc3ccc4ccc(-c5cccc(-c6ccc7ccc8ccc(-c9cc(C)cc(C)c9)nc8c7n6)c5)nc4c3n2)c1 [ADT-12] | 3.1 µg/mL (≈ 4.82 µM) | < 0.1 µg/mL
Cc1ccc(-c2ccc3ccc4ccc(-c5cccc(-c6ccc7ccc8ccc(-c9ccc(C)cc9)nc8c7n6)c5)nc4c3n2)cc1 [ADT-13] | 3.2 µg/mL (≈ 5.21 µM) | < 0.1 µg/mL

Other lines, results leading:

solubility at 1 h (aqueous buffer) | solubility at 1 h (water) | SMILES
2.8 µg/mL (≈ 4.08 µM) | < 0.1 µg/mL | c1cc(-c2ccc3ccc4ccc(-c5cccc6ccccc56)nc4c3n2)cc(-c2ccc3ccc4ccc(-c5cccc6ccccc56)nc4c3n2)c1 [ADT-14]
2.5 µg/mL (≈ 4.26 µM) | < 0.1 µg/mL | c1ccc(-c2ccc3ccc4ccc(-c5ccc(-c6ccc7ccc8ccc(-c9ccccc9)nc8c7n6)cc5)nc4c3n2)cc1 [ADT-15]
2.8 µg/mL (≈ 4.01 µM) | < 0.1 µg/mL | CC(C)(C)c1ccc(-c2ccc3ccc4ccc(-c5ccc(-c6ccc7ccc8ccc(-c9ccc(C(C)(C)C)cc9)nc8c7n6)cc5)nc4c3n2)cc1 [ADT-16]
4.6 µg/mL (≈ 9.01 µM) | < 0.1 µg/mL | c1cc(-c2cccc(-c3ccc4ccc5cccnc5c4n3)c2)cc(-c2ccc3ccc4cccnc4c3n2)c1 [ADT-17]
1.3 µg/mL (≈ 2.12 µM) | < 0.1 µg/mL | c1cnc2c(c1)ccc1ccc(-c3cc(-c4ccc5ccc6cccnc6c5n4)cc(-c4ccc5ccc6cccnc6c5n4)c3)nc12 [ADT-18]
< 0.1 µg/mL | < 0.1 µg/mL | c1cnc2c(c1)ccc1ccc(-c3ccc(C(c4ccc(-c5ccc6ccc7cccnc7c6n5)cc4)(c4ccc(-c5ccc6ccc7cccnc7c6n5)cc4)c4ccc(-c5ccc6ccc7cccnc7c6n5)cc4)cc3)nc12 [ADT-19]
7.5 µg/mL (≈ 12.2 µM) | < 0.1 µg/mL | Nc1ccc(-c2ccc3ccc4ccc(-c5cccc(-c6ccc7ccc8ccc(-c9ccc(N)cc9)nc8c7n6)c5)nc4c3n2)cc1 [ADT-20]
6.3 µg/mL (≈ 8.44 µM) | < 0.1 µg/mL | O=S(=O)(O)c1ccc(-c2ccc3ccc4ccc(-c5cccc(-c6ccc7ccc8ccc(-c9ccc(S(=O)(=O)O)cc9)nc8c7n6)c5)nc4c3n2)cc1 [ADT-21]
